For this assay, the target named is T1, NL20 human bronchial epithelial cells expressing human Z-AAT (Homo sapiens, UniProt P01009, E366K).
T1 construct: expressed in transfected cells; host or cells: NL20 human bronchial epithelial cells (NL20-SI line, doxycycline added)
Description: AAT Function Assay (MSD Assay NL20-SI Cell Line). The conditions noted are these: functionally active AAT (AAT-hNE complex) in supernatant of NL20 cells expressing human Z-AAT; read-out: NL20 Func. (EC50). It is filed as cell-based. As to the method: A. AAT Function Assay (MSD Assay NL20-SI Cell Line)
Alpha-1 antitrypsin (AAT) is a SERPIN (serine protease inhibitor) that inactivates enzymes by binding to them covalently. This assay measured the amount of functionally active AAT in a sample in the presence of the disclosed compounds 1-215 by determining the ability of AAT to form an irreversible complex with human neutrophil Elastase (hNE). In practice, the sample (cell supernatant, blood sample, or other) was incubated with excess hNE to allow AAT-Elastase complex to be formed with all functional AAT in the sample. This complex was then captured to a microplate coated with an anti-AAT antibody. The complex captured to the plate was detected with a labeled anti-Elastase antibody and quantitated using a set of AAT standards spanning the concentration range present in the sample. Meso Scale Discovery (MSD) plate reader, Sulfo-tag labeling, and microplates were used to provide high sensitivity and wide dynamic range.
• 1. Harvest NL20 human bronchial epithelial cells expressing human Z-AAT in OptiMEM™ containing Pen/Strep (P/S) • 2. Seed at 16,000 cells/well in 30 μL (384 well plate) • 3. Centrifuge plates briefly up to speed (1200 rpm) and place into 37° C. incubator overnight Day 2: Compound Addition and Coating Plates with Capture Antibody Compound Addition: • 1. Dispense 40 μL of OptiMEM™ (P/S) with doxycycline (1:1000 stock=0.1 μM final) to each well of the compound plate using a multidrop Combi in hood • 2. Remove cell plate from incubator, flip/blot and take immediately to Bravo to transfer compounds • 3. Return plates to incubator overnight Coat MSD Plates • 1. Dilute capture antibody (Polyclonal Goat anti-AAT) to 5 μg/mL (1:200) in PBS (no BSA). • 2. Dispense 25 μL of diluted capture antibody into all wells of MSD 384-well High Bind plate using the Multidrop equipped with a standard cassette. • 3. Incubate overnight at 4° C. Prepare Blocker A (BSA) Solutions • 1. Prepare solution of 5% MSD Blocker A (BSA) following the manufacturer's instructions. • 2. Further dilute the 5% MSD Blocker A in PBS to 1% (Blocker A) as needed. Day 3: Run MSD Assay
Block Plates • 1. Wash plate 1× with 50 μL Wash buffer (PBS+0.5% Tween 20), and adds 35 μL 5% Block A buffer to block non-specific binding on washer dispenser • 2. Rotate plates on shaker for 1 hour at 600 rpm
Prepare M-AAT Standards • 1. Dilute M-AAT stock to 1.6 μg/mL in 1% BSA Blocker A (Stock in −70° C.); then prepare 12×1:2 serial dilutions in 1% Blocker A • 2. The top starting final concentration on MSD plate is 320 ng/mL. These dilutions correspond to a final concentration of 320, 160, 80, 40, 20, 10, 5, 2.5, 1.25, 0.625, 0.312, 0.156 ng/mL.
Dilution Plate • 1. Add 80 μL of 1% Assay buffer to all wells except columns 1/24 (standards) with Multidrop Combi • 2. Add diluted standards to columns 1 and 24 • 3. Centrifuge dilution plates 1200 rpm briefly
Cell Plate • 1. Aspirate columns which will have the standards from the cell plates in the hood using 16-pin aspirator
Prepare Human Neutrophil Elastase (hNE) • 1. Prepare 1 μg/mL Human Neutrophil Elastase by diluting in 1% Blocker A. • a. Small 100 μg vial—add 1 mL PBS (100 μg/mL) • i. This can then be diluted 1:100 in 1% Assay Buffer for a final 1 μg/mL concentration
MSD—Add hNE (20 μL/well) • 1. After the MSD plate has blocked for at least 1 hour, wash plate 1× with 50 μL Wash buffer (PBS+0.5% Tween 20) and then add 20 μL hNE to each well
Bravo—Cell Plate—Dilution Plate—MSD Plate
Using the Bravo aspirate 10 μL from the cell plate, transfer to the dilution plate (9-fold dilution)
• 1. Mix 25 μL 3×, then aspirate 5 μL, transfer to MSD plate (5-fold dilution) • 2. Mix 10 μL 3×. Total dilution is 45 fold. • 3. Shake plates at 600 rpm for 1.5 hours
Add Functional detection hNE antibody • 1. Wash plate 1× with wash buffer • 2. […]

We go through 30 compounds from patent US11623924B2, “Modulators of alpha-1 antitrypsin” (Vertex Pharmaceuticals Incorporated, priority 2018, dated 2023).

Structures are written as SMILES.

T1 sequence (P01009 25-418 E366K): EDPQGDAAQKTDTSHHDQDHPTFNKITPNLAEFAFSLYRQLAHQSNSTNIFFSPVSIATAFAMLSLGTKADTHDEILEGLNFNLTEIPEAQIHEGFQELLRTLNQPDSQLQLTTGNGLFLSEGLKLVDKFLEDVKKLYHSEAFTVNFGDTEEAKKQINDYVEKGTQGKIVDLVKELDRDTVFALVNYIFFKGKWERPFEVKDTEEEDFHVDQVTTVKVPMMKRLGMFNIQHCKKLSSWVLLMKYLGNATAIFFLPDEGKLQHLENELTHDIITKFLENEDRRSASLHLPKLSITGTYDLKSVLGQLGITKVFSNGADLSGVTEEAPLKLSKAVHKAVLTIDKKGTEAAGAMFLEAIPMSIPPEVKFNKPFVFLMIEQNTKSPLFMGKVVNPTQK

For the compound `Cc1cc(-n2c(C3CCOCC3)c(C3CC(CC(=O)O)C3)c3cc4[nH]ncc4cc32)ccc1F` (mixture of isomers) [Compound 93], the EC50 was in the range of 1160 to 3000 nM.

For `COCC(C)(C)c1c(CCCN)c2cc3[nH]ncc3cc2n1-c1ccc(F)cc1` [Compound 179], the EC50 was greater than 3000 nM.

Consider `Cc1cc(-n2c(C(C)C)c(C3CC(C)(C(=O)O)C3)c3cc4[nH]nc(C)c4cc32)ccc1F` (mixture of isomers) [Compound 55, 3-[5-(4-fluoro-3-methyl-phenyl)-6-isopropyl-3-methyl-1H-pyrrolo[2,3-f]indazol-7-yl]-1-methyl-cyclobutanecarboxylic Acid], for which the EC50 was less than 1160 nM.

As to `Cc1cc(-n2c(C3CCOCC3)c(CCCC(=O)O)c3cc4[nH]ncc4cc32)ccc1F` [Compound 88], the EC50 was in the range of 1160 to 3000 nM.

Take `O=C(O)[C@H]1CC[C@H](Cc2c(C3CCOCC3)n(-c3ccc(F)c(F)c3)c3cc4cn[nH]c4cc23)CC1` (single isomer, unassigned) [Compound 74]: the EC50 lay in the range of 1160 to 3000 nM.

Turning to `O=C(O)C1CC2(C1)CC(c1c(C3CCOCC3)n(-c3ccc(F)cc3)c3cc4cn[nH]c4c(F)c13)C2` (single isomer, unassigned) [Compound 136, 6-[8-fluoro-5-(4-fluorophenyl)-6-tetrahydropyran-4-yl-1H-pyrrolo[2,3-f]indazol-7-yl]spiro[3.3]heptane-2-carboxylic acid], the EC50 is less than 1160 nM.

With `O=C(O)C1CC2(C1)CC(c1c(C3CCOCC3)n(-c3ccccc3)c3cc4cn[nH]c4cc13)C2` (stereo not drawn) [Compound 123, 6-(5-phenyl-6-tetrahydropyran-4-yl-1H-pyrrolo[2,3-f]indazol-7-yl)spiro[3.3]heptane-2-carboxylic Acid], the EC50 fell in the range of 1160 to 3000 nM.

On to `Cc1cc(-n2c(C(C)C)c(CC(C)C(=O)O)c3cc4[nH]ncc4cc32)ccc1F` (single isomer, unassigned) [Compound 20], for which the EC50 is less than 1160 nM.

In the case of `CC(C)c1c(C2CC3(CC(C(=O)O)C3)C2)c2cc3[nH]ncc3cc2n1-c1ccc(F)cc1` (single isomer, unassigned) [Compound 36, 6-[5-(4-fluorophenyl)-6-isopropyl-1H-pyrrolo[2,3-f]indazol-7-yl]spiro[3.3]heptane-2-carboxylic acid], the EC50 was less than 1160 nM.

Take `NC(=O)NCCCc1c(C2CCOCC2)n(-c2ccc(F)cc2)c2cc3cn[nH]c3cc12` [Compound 157, 3-[5-(4-fluorophenyl)-6-tetrahydropyran-4-yl-1H-pyrrolo[2,3-f]indazol-7-yl]propylurea]: the EC50 is greater than 3000 nM.

With `Cc1cc(-n2c(C3CCOCC3)c([C@H]3C[C@](C)(C(=O)O)C3)c3cc4[nH]ncc4cc32)ccc1F` (single isomer, unassigned) [Compound 104], the EC50 is less than 1160 nM.

Consider `Cc1cc(-n2c(C(C)C)c(CCC(=O)O)c3cc4[nH]ncc4cc32)ccc1F` [Compound 16, 3-[5-(4-fluoro-3-methyl-phenyl)-6-isopropyl-1H-pyrrolo[2,3-f]indazol-7-yl]propanoic acid], for which the EC50 lay in the range of 1160 to 3000 nM.

`[2H]C(C(=O)O)C([2H])c1c(C(C)C)n(-c2ccc(F)cc2)c2cc3cn[nH]c3cc12` (stereo not drawn) [Compound 167, 2,3-dideuterio-3-[5-(4-fluorophenyl)-6-isopropyl-1H-pyrrolo[2,3-f]indazol-7-yl]propanoic Acid]: the EC50 is 1160 to 3000 nM.

For `CC(C)c1c(CCC(=O)O)c2cc3[nH]ncc3cc2n1-c1ccccc1` [Compound 41, 3-(6-isopropyl-5-phenyl-1H-pyrrolo[2,3-f]indazol-7-yl)propanoic Acid], the EC50 was in the range of 1160 to 3000 nM.

Take `O=C1CCCC(c2c(C3CCOCC3)n(-c3ccc(F)cc3)c3cc4cn[nH]c4cc23)C1` (racemic) [Compound 121, 3-[5-(4-fluorophenyl)-6-tetrahydropyran-4-yl-1H-pyrrolo[2,3-f]indazol-7-yl]cyclohexanone]: the EC50 was in the range of 1160 to 3000 nM.

With `Fc1ccc(-n2c(C3CCOCC3)c(CCCn3cncn3)c3cc4[nH]ncc4cc32)cc1` [Compound 164], the EC50 is greater than 3000 nM.

Consider `Cc1cc(-n2c(C(C)C)c(CCC(=O)O)c3c(C)c4[nH]ncc4cc32)ccc1F` [Compound 51, 3-[5-(4-fluoro-3-methyl-phenyl)-6-isopropyl-8-methyl-1H-pyrrolo[2,3-f]indazol-7-yl]propanoic acid], for which the EC50 lay in the range of 1160 to 3000 nM.

Turning to `Fc1ccc(-n2c(C3CCOCC3)c(CC3CCOCC3)c3cc4[nH]ncc4cc32)cc1` [Compound 145], the EC50 was less than 1160 nM.

For the compound `C[C@]1(C(=O)O)C[C@H](c2c(C3CCOCC3)n(-c3ccc(F)cc3)c3cc4cn[nH]c4cc32)C1` (single isomer, unassigned) [Compound 115], the EC50 lay within 1160 to 3000 nM.

As for `COCC(C)(C)c1c(CC2CC(C(=O)O)C2)c2cc3[nH]ncc3cc2n1-c1ccc(F)cc1` (stereo not drawn) [Compound 175], the EC50 was in the range of 1160 to 3000 nM.

For `Cc1cc(-n2c(C(C)C)c(I)c3cc4[nH]nc(F)c4cc32)ccc1F` [Compound 46, 3-fluoro-5-(4-fluoro-3-methyl-phenyl)-7-iodo-6-isopropyl-1H-pyrrolo[2,3-f]indazole], the EC50 was greater than 3000 nM.

As for `C[C@H](O)C(=O)N1CC2(CC(c3c(C4CCOCC4)n(-c4ccc(F)c(F)c4)c4cc5cn[nH]c5cc34)C2)C1` [Compound 184, (2S)-1-[6-[5-(3,4-difluorophenyl)-6-tetrahydropyran-4-yl-1H-pyrrolo[2,3-f]indazol-7-yl]-2-azaspiro[3.3]heptan-2-yl]-2-hydroxy-propan-1-one], the EC50 was greater than 3000 nM.

`CC1(C(=O)O)CC(c2c(C3CCOCC3)n(-c3ccc(F)c(F)c3)c3cc4cn[nH]c4cc23)C1` (single isomer, unassigned) [Compound 70]: the EC50 is less than 1160 nM.

As for `Cc1cc(-n2c(C3CCOCC3)c(C3CC4(CC(C(=O)O)C4)C3)c3cc4[nH]ncc4cc32)ccc1F` (racemic) [Compound 90], the EC50 was less than 1160 nM.

In the case of `Cc1cc(-n2c(C(C)C)c(CCC(=O)O)c3c(F)c4[nH]ncc4cc32)ccc1F` [Compound 52, 3-[8-fluoro-5-(4-fluoro-3-methyl-phenyl)-6-isopropyl-1H-pyrrolo[2,3-f]indazol-7-yl]propanoic Acid], the EC50 was less than 1160 nM.

`[2H]C(C(=O)O)C([2H])([2H])c1c(C(C)C)n(-c2ccc(F)cc2)c2cc3cn[nH]c3cc12` (stereo not drawn) [Compound 168, 2,3,3-trideuterio-3-[5-(4-fluorophenyl)-6-isopropyl-1H-pyrrolo[2,3-f]indazol-7-yl]propanoic acid]: the EC50 fell in the range of 1160 to 3000 nM.

Take `CC(C)(C)c1c(C#N)c2cc3[nH]ncc3cc2n1-c1ccc(F)cc1` [Compound 143, 6-tert-butyl-5-(4-fluorophenyl)-1H-pyrrolo[2,3-f]indazole-7-carbonitrile]: the EC50 is greater than 3000 nM.

Regarding `CS(=O)(=O)CCc1c(C2CCOCC2)n(-c2ccc(F)cc2)c2cc3cn[nH]c3cc12` [Compound 151], the 50% effective concentration (EC50) lay within 1160 to 3000 nM.

For the compound `CC(C)c1c(C23CC(C(=O)O)(C2)C3)c2cc3[nH]ncc3cc2n1-c1ccc(F)cc1` [Compound 210, 3-(5-(4-fluorophenyl)-6-isopropyl-1,5-dihydropyrrolo[2,3-f]indazol-7-yl)bicyclo[1.1.1]pentane-1-carboxylic Acid], the EC50 is less than 1160 nM.

On to `Cc1cc(-n2c(C3CCOCC3)c([C@H]3C[C@@H](C(=O)O)C3)c3cc4[nH]ncc4cc32)ccc1F` [Compound 99], for which the EC50 is greater than 3000 nM.

As usually defined, the EC50 is the midpoint of the concentration-response curve.
